Reference: patent US7893074B2, “2, 4-pyrimidinediamines useful in the treatment of neoplastic diseases, inflammatory and immune system disorders” (Novartis AG, priority 2003, dated 2011)
“And” between values parts separate entries of the source, which are not always exact repeats. Equal entries are not always repeated. Where two headings read alike, the source gives them in different places.

What was measured:
FAK = FAK (Mus musculus, UniProt P34152); assay: Phos IC50 (phosphorylation); format: cell-based
Sequence of FAK (P34152 2-1052): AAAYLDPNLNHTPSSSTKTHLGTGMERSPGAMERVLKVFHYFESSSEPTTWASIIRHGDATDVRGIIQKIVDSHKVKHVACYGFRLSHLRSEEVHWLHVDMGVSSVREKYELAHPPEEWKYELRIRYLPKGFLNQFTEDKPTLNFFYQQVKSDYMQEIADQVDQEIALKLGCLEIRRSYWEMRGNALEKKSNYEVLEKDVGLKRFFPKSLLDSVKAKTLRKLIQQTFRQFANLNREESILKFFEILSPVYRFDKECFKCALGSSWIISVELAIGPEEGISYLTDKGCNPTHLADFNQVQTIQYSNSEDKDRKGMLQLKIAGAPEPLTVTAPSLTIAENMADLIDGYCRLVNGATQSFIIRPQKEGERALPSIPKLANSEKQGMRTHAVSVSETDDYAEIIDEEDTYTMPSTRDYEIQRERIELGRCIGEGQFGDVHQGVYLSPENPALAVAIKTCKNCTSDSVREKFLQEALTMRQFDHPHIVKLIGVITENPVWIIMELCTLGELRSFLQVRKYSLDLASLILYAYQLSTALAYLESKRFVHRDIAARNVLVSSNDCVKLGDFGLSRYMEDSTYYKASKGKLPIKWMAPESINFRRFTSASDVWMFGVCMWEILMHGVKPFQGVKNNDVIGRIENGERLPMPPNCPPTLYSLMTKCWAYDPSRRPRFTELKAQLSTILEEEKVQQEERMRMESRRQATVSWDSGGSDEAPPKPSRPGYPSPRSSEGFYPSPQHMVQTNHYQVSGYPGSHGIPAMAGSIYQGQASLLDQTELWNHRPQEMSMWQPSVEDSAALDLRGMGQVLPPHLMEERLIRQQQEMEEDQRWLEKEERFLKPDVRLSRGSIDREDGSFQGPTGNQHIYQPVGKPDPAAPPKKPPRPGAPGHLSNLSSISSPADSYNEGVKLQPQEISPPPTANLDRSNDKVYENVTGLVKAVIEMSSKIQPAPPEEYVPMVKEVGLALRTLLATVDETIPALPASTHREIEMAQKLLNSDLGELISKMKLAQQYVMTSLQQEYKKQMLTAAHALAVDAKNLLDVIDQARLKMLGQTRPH

[1] = biological target: Focal Adhesion Kinase (FAK) (Homo sapiens, UniProt Q05397); assay: FAK assay system (Focal Adhesion Kinase inhibition); format: biochemical
Sequence of Focal Adhesion Kinase (FAK) (Q05397 384-706): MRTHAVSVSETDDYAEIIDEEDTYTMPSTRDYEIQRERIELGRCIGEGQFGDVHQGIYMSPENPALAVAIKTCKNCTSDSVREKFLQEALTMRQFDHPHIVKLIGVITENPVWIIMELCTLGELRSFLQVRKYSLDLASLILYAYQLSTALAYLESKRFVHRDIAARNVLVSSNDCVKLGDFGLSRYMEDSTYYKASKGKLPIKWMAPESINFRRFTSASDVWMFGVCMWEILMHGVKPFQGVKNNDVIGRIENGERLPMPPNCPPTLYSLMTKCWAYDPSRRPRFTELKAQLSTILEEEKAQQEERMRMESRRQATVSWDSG

[2] = tested on: Mouse mammary carcinoma 4T1 cells; assay: Anchorage-independent tumor cell growth assay; format: cell-based
Method: Cells are cultured for 2 h and inhibitors are added at various concentrations in a final concentration of 0.1% DMSO. After 48 h, cell growth is assayed with the cell counting kit-8 (Wako Pure Chemical), which uses a water soluble tetrazolium salt WST8. Twenty μL of the reagent is added into each well and cells are further cultured for 2 h. The optical density is measured at 450 nm.

SMILES | IC50 ([1]; read-out: FAK IC50) | IC50 ([2]; Mus musculus, 4T1) [nM] | further results
NS(=O)(=O)c1ccccc1Nc1nc(Nc2cccc3c2OC(F)(F)O3)ncc1Br [Compound 6, 2-[5-Bromo-2-(2,3-[difluoromethylenedioxy]phenylamino)-pyrimidin-4-ylamino]-benzenesulfonamide] | 110 nM | 5000 | IC50 (FAK): 350 nM
CNS(=O)(=O)c1ccccc1Nc1nc(Nc2ccc(OC)cc2OC)ncc1Br [Example 2, 2-[5-Bromo-2-(2,4-dimethoxy-phenylamino)-pyrimidin-4-ylamino]-N-methyl-benzenesulfonamide] | 13 nM |  | 
CNS(=O)(=O)c1ccccc1Nc1nc(Nc2cccc3c2CCC3)ncc1Br [Example 3-12] |  | 1000 | IC50 ([1]; FAK IC50): 5.4 nM; IC50 ([1]; FAK inhibition IC50, FAK assay system): 1 to 5 nM
CNS(=O)(=O)c1ccccc1Nc1nc(Nc2ccc(F)cc2F)ncc1Br [Example 3-36] |  | 2800 | IC50 ([1]; FAK IC50): 43 nM
CNS(=O)(=O)c1ccccc1Nc1nc(Nc2cc(C(=O)N3CCN(C)CC3)ccc2OC)ncc1Br [Example 3-49] | 39 nM | 390 | 
CNS(=O)(=O)c1ccccc1Nc1nc(Nc2cccc(N(C)C)c2C)ncc1Br [Example 3-53] |  | 210 | IC50 ([1]; FAK IC50): 6 nM
CNS(=O)(=O)c1ccccc1Nc1nc(Nc2cc(-c3ccc(OC)cc3)ccc2OC)ncc1Br [Example 3-56] |  | 150 | IC50 ([1]; FAK IC50): 28 nM
CCOc1ccc(OC)cc1Nc1ncc(Br)c(Nc2ccccc2S(=O)(=O)NC)n1 [Example 3-61] | 12 nM | > 10000 | 
CNS(=O)(=O)c1ccccc1Nc1nc(Nc2ccc(OC3CCN(C)C3)cc2OC)ncc1Br (stereo not drawn) [Example 3-82] |  |  | IC50 [2]: 70 nM
CNC(=O)c1ccccc1Nc1nc(Nc2ccc(N3CCC[C@@H](C(N)=O)C3)cc2OC)ncc1Cl [Example 7-17] |  |  | IC50 ([1]; FAK IC50): 4.3 nM
CNC(=O)c1ccccc1Nc1nc(Nc2ccc(N3CCC[C@H](C(N)=O)C3)cc2OC)ncc1Cl [Example 7-18] |  |  | IC50 ([1]; FAK IC50): 6.2 nM
CNC(=O)c1ccccc1Nc1nc(Nc2cc(N3CCC(N4CCN(C)CC4)CC3)ccc2OC)ncc1Cl [Example 7-19] | 13 nM | 330 | 
CNC(=O)c1ccccc1Nc1nc(Nc2cc(N3CCN(C)CC3)ccc2OC)ncc1Cl [Example 7-22] | 25 nM | 480 | 
CNC(=O)c1ccccc1Nc1nc(Nc2cc(N3CCC(NC)C3)ccc2OC)ncc1Cl (stereo not drawn) [Example 7-23] | 1.4 nM | 250 | 
CNC(=O)c1ccccc1Nc1nc(Nc2cc(N3CCC(N4CCCCC4)CC3)ccc2OC)ncc1Cl [Example 7-24] | 5.1 nM | 90 | 
CNC(=O)c1ccccc1Nc1nc(Nc2ccc(N3CCC(N4CCCC4)CC3)cc2OC)ncc1Cl [Example 7-25] | 13 nM and 2 nM | 730 | IC50 [2]: 570 nM
CNC(=O)c1ccccc1Nc1nc(Nc2ccc(N3CCNCC3)cc2OC)ncc1Cl [Example 7-26] | 4.1 nM | 150 | 
CCNC(=O)c1ccccc1Nc1nc(Nc2ccc(N3CCC(N4CCCCC4)CC3)cc2OC)ncc1Cl [Example 9-3] |  |  | IC50 [2]: 370 nM
COc1cc(N2CCN(C)CC2)ccc1Nc1ncc(Cl)c(Nc2cccc3c2C(=O)N(C)C3)n1 [Example 12-2] | 1.6 nM | 50 | 
COc1cc(N2CCC(O)CC2)ccc1Nc1ncc(Cl)c(Nc2cccc3c2C(=O)N(C)C3)n1 [Example 12-3] | 2.3 nM | 250 | 
COc1cc(N2CCC(N3CCN(C)CC3)CC2)ccc1Nc1ncc(Cl)c(Nc2cccc3c2C(=O)N(C)C3)n1 [Example 12-4] | 1.1 nM | 140 | 
COc1cc(N2CCN3CCOC[C@H]3C2)ccc1Nc1ncc(Cl)c(Nc2cccc3c2C(=O)N(C)C3)n1 [Example 12-6] | 2.6 nM |  | 
CCN1Cc2cccc(Nc3nc(Nc4ccc(N5CCN(C)CC5)cc4OC)ncc3Cl)c2C1=O [Example 13-1] | 65 nM | 810 | 
CNC(=O)c1cc(F)c(F)cc1Nc1nc(Nc2ccc(N3CCOCC3)cc2OC)ncc1Cl [Example 14-3] |  | 1010 | IC50 ([1]; FAK IC50): 30 nM
COc1cc(N2CCOCC2)ccc1Nc1ncc(Cl)c(Nc2cccc3c2C(=O)CC3)n1 [Example 14-4] | 18 nM | 540 | 
COc1cc(N2CCOCC2)ccc1Nc1ncc(Cl)c(Nc2ccccc2C(=O)N2CCCC2)n1 [Example 14-6] | 63 nM | 1110 | 

SMILES | IC50 ([1]; read-out: FAK IC50) | IC50 ([2]; Mus musculus, 4T1) [nM] | further results
CNC(=O)c1cc(N2CCCC2)ccc1Nc1nc(Nc2ccc(N3CCN(C)CC3)cc2OC)ncc1Cl [Example 15-1] | 15 nM | 470 | 
CNC(=O)c1cc(N2CCCC2)ccc1Nc1nc(Nc2ccc(N3CCOCC3)cc2OC)ncc1Cl [Example 15-3] |  |  | IC50 [2]: 1670 nM
COc1cc(N2CCCC(C(N)=O)C2)ccc1Nc1ncc(Cl)c(Nc2ccccc2S(=O)(=O)NC(C)C)n1 (stereo not drawn) [Example 19-19] | 5.7 nM | 400 | 
COc1cc(OCC(C)(C)CN(C)C)ccc1Nc1ncc(Cl)c(Nc2ccccc2S(=O)(=O)NC(C)C)n1 [Example 19-24] |  | 120 | IC50 ([1]; FAK IC50): 1.8 nM
COc1cc(OCCN2CCOCC2)ccc1Nc1ncc(Cl)c(Nc2ccccc2S(=O)(=O)NC(C)C)n1 [Example 19-29] | 1.9 nM |  | 
CNS(=O)(=O)c1ccccc1Nc1nc(Nc2cc(OC)c(N3CCOCC3)cc2OC)ncc1Cl [Example 20-12] | 9.5 nM |  | 
CNS(=O)(=O)c1ccccc1Nc1nc(Nc2cc(OC)c(N3CCN(C)CC3)cc2OC)ncc1Cl [Example 20-13] | 6.3 nM | 40 | 
CCCOc1cc(N2CCN(C)CC2)ccc1Nc1ncc(Cl)c(Nc2ccccc2S(=O)(=O)NC)n1 [Example 20-14] | 33 nM | 320 | 
CNS(=O)(=O)c1ccccc1Nc1nc(Nc2ccc(N3CCC(N4CCN(C)CC4)CC3)cc2OC)ncc1Cl [Example 20-16] | 7.5 nM | 60 | 
CNC1CCN(c2ccc(Nc3ncc(Cl)c(Nc4ccccc4S(=O)(=O)NC)n3)c(OC)c2)C1 (stereo not drawn) [Example 20-17] | 2 nM | 140 | 
CNS(=O)(=O)c1ccccc1Nc1nc(Nc2cc(N3CCC(N4CCN(C)CC4)CC3)ccc2OC)ncc1Cl [Example 20-18] | 15 nM | 810 | 
CNS(=O)(=O)c1ccccc1Nc1nc(Nc2cc(N3CCC(O)CC3)ccc2OC)ncc1Cl [Example 20-19] | 28 nM | 210 | 
CNS(=O)(=O)c1ccccc1Nc1nc(Nc2ccc(OC3CCN(C)C3)cc2OC)ncc1Cl (stereo not drawn) [Example 20-29] |  |  | IC50 [2]: 50 nM
CNS(=O)(=O)c1ccccc1Nc1nc(Nc2cc(N3CCN(C)CC3)ccc2OC)ncc1Cl [Example 20-31] | 39 nM | 500 | 
CNS(=O)(=O)c1ccccc1Nc1nc(Nc2cc(N3CCC(N4CCCCC4)CC3)ccc2OC)ncc1Cl [Example 20-32] | 13 nM | 110 | 
CNC1CCN(c2ccc(OC)c(Nc3ncc(Cl)c(Nc4ccccc4S(=O)(=O)NC)n3)c2)C1 (stereo not drawn) [Example 20-33] | 2.5 nM | 380 | 
CCC(CC)NS(=O)(=O)c1ccccc1Nc1nc(Nc2ccc(OC3CCN(C)C3)cc2OC)ncc1Cl (stereo not drawn) [Example 23-7] |  |  | IC50 [2]: 840 nM
COc1cc(N2CCOCC2)ccc1Nc1ncc(Cl)c(Nc2ccccc2S(=O)(=O)NC2CCCC2)n1 [Example 25-1] |  | 1000 | IC50 ([1]; FAK IC50): 8.5 nM
CCCS(=O)(=O)c1ccccc1Nc1nc(Nc2ccc(N3CCCC(C(N)=O)C3)cc2OC)ncc1Cl (stereo not drawn) [Example 26-14] | 5 nM | 190 | 
CCCS(=O)(=O)c1ccccc1Nc1nc(Nc2ccc(N3CCN(CC(=O)NC(C)C)CC3)cc2OC)ncc1Cl [Example 26-21] | 1.1 nM |  | IC50 (FAK): 100 nM
COc1cc(N2CCC(N3CCN(C)CC3)CC2)ccc1Nc1ncc(Cl)c(Nc2ccccc2S(=O)(=O)C(C)C)n1 [Example 28-5] |  | 120 | IC50 (FAK): 100 nM
COc1cc([N+](=O)[O-])ccc1Nc1ncc(Cl)c(Nc2ccccc2S(=O)(=O)C(C)C)n1 [Example 28-7] |  | > 10000 | IC50 ([1]; FAK IC50): 47 nM
CCN1CCN(c2ccc(Nc3ncc(Cl)c(Nc4ccccc4S(=O)(=O)C(C)C)n3)c(OC)c2)CC1 [Example 28-12] | 3.2 nM | 430 | 
COc1cc(OC2CCN(C)CC2)ccc1Nc1ncc(Cl)c(Nc2ccccc2S(=O)(=O)C(C)C)n1 [Example 28-19] |  |  | IC50 [2]: 140 nM
CNC1CCN(c2ccc(Nc3ncc(Cl)c(Nc4ccccc4S(=O)(=O)C(C)C)n3)c(OC)c2)CC1 [Example 28-20] | 4.4 nM |  | IC50 (FAK): […]
